Measurements reported in ChEMBL document CHEMBL1201862, “PubChem BioAssay data set” (2004).
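Protocol summary: plate cells (96-well), add compound at 5 concentrations, incubate 48 h, interpolate endpoints linearly. Here, GI50 denotes the concentration required for 50% inhibition of growth.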 The source made the active and inactive calls. No stated cut-off is given here; in the data, active = GI50 up to about 1.1 µM and inactive = higher.

Assays:
Experiment in all cases: DTP human tumour cell line panel, 48 h
[1] = tested on: A549
[2] = tested on: BT-549
[3] = tested on: 786-0
[4] = tested on: UO-31
[5] = tested on: DU-145
[6] = tested on: MDA-MB-435
[7] = tested on: HCC 2998
[8] = tested on: T47D
[9] = tested on: RPMI-8226
[10] = tested on: Hs-578T
[11] = tested on: HOP-62
[12] = tested on: U-251
[13] = tested on: A498
[14] = tested on: NCI/ADR-RES
[15] = tested on: OVCAR-5
[16] = tested on: SF-539
[17] = tested on: CAKI-1
[18] = tested on: IGROV-1
[19] = tested on: RXF 393
[20] = tested on: UACC-62

Measured: GI50

CC(=O)Oc1ccc2cc(-c3ccc(OC(C)=O)c(OC(C)=O)c3)c(=O)oc2c1
inactive: [1] 73.6 µM | [2] 42.3 µM | [3] > 100 µM | [4] 56 µM | [5] 41.6 µM | [6] 61.5 µM | [7] > 100 µM | [8] 24.5 µM | [9] 39.3 µM | [10] 54.2 µM | [11] > 100 µM | [12] 67.1 µM | [13] 34.4 µM | [14] 40.7 µM | [15] > 100 µM | [16] > 100 µM

OC(c1ccc(-c2ccccc2)cc1)(c1ccc(-c2ccccc2)cc1)c1ccc(-c2ccccc2)cc1
inactive: [1] > 100 µM | [2] > 100 µM | [3] > 100 µM | [17] > 100 µM | [4] > 100 µM | [5] > 100 µM | [6] > 100 µM | [8] > 100 µM | [9] > 100 µM | [10] > 100 µM | [18] > 100 µM | [11] > 100 µM | [12] > 100 µM | [14] > 100 µM | [19] > 100 µM | [15] > 100 µM | [20] > 100 µM

Oc1cc(-c2ccc3ccccc3c2)nc2ncccc12
inactive: [1] 4.68 µM | [2] 9.93 µM | [3] 12.1 µM | [4] 18.1 µM | [5] 19.9 µM | [7] 9.4 µM | [8] 11.6 µM | [9] 3.15 µM | [10] 9.35 µM | [18] 6.4 µM | [11] 21.7 µM | [13] 7.23 µM | [14] 4.4 µM | [15] 31.3 µM | [20] 5.41 µM | [16] 6.95 µM

COC(=O)C(/C(=N/NC(N)=O)C(=O)Nc1ccc(C)cc1)c1nc2ccc([N+](=O)[O-])cc2nc1O (centres undefined)
inactive: [1] > 100 µM | [2] > 100 µM | [3] > 100 µM | [17] > 100 µM | [6] > 100 µM | [7] 70.1 µM | [8] > 100 µM | [9] > 100 µM | [10] 67.3 µM | [18] > 100 µM | [11] > 100 µM | [12] > 100 µM | [13] > 100 µM | [14] > 100 µM | [19] > 100 µM | [15] > 100 µM | [20] > 100 µM | [16] > 100 µM

COc1cccc2c1CCc1c(-c3ccc(F)cc3)cc(-c3ccc4ccccc4n3)nc1-2
inactive: [1] > 100 µM | [2] > 100 µM | [3] > 100 µM | [17] > 100 µM | [4] > 100 µM | [6] > 100 µM | [8] > 100 µM | [9] > 100 µM | [10] > 100 µM | [18] > 100 µM | [11] > 100 µM | [12] > 100 µM | [13] > 100 µM | [14] > 100 µM | [19] > 100 µM | [15] > 100 µM | [20] > 100 µM | [16] > 100 µM

N#C[C@H](c1nc2ccccc2s1)c1nc2ccccc2nc1Cl
inactive: [1] 32.4 µM | [2] 4.79 µM | [3] > 100 µM | [17] > 100 µM | [4] 23.3 µM | [6] > 100 µM | [7] 2.67 µM | [8] > 100 µM | [9] > 100 µM | [10] 94.6 µM | [18] > 100 µM | [11] 17.9 µM | [12] > 100 µM | [13] > 100 µM | [14] > 100 µM | [19] 13.4 µM | [15] 17.9 µM | [20] 14.3 µM | [16] 37 µM

Cc1cccc(/C=C2\CCCCCC2=O)c1
inactive: [1] > 100 µM | [2] > 100 µM | [3] > 100 µM | [17] > 100 µM | [4] > 100 µM | [5] > 100 µM | [6] > 100 µM | [7] > 100 µM | [8] > 100 µM | [9] 60.5 µM | [10] > 100 µM | [18] > 100 µM | [11] > 100 µM | [12] > 100 µM | [13] > 100 µM | [15] > 100 µM | [20] > 100 µM

C[C@H]1CC[C@@]2(NC1)O[C@H]1C[C@H]3[C@@H]4CC[C@H]5C[C@@H](O)CC[C@]5(C)[C@H]4CC[C@]3(C)[C@H]1[C@@H]2C
inactive: [1] > 100 µM | [2] > 100 µM | [3] 39.9 µM | [17] > 100 µM | [4] > 100 µM | [5] > 100 µM | [7] > 100 µM | [8] > 100 µM | [9] > 100 µM | [10] 47 µM | [18] 71.6 µM | [11] 18.7 µM | [13] 77.8 µM | [14] 49.2 µM | [15] > 100 µM | [20] > 100 µM | [16] > 100 µM

COc1ccc(/C(C)=N/OC(=O)c2c(-c3ccccc3Cl)noc2C)cc1CN1CCOCC1
inactive: [1] 19.1 µM | [2] 22.2 µM | [3] 24.5 µM | [17] 20.7 µM | [4] 3.75 µM | [5] 38.3 µM | [6] 20.8 µM | [7] 30.5 µM | [8] 16.4 µM | [9] 26.1 µM | [10] 28.9 µM | [18] 21.1 µM | [11] 19.1 µM | [12] 25.4 µM | [14] 34.1 µM | [19] 26.3 µM | [15] 12.8 µM | [20] 15 µM | [16] 24.8 µM

Cc1ccc(S(=O)(=O)ON2C(=O)c3cccc4cc([N+](=O)[O-])cc(c34)C2=O)cc1
inactive: [1] > 100 µM | [2] 27 µM | [3] 47.5 µM | [17] 55.8 µM | [4] 42.1 µM | [5] 89.1 µM | [6] 40.3 µM | [7] 23.8 µM | [8] 51.6 µM | [9] > 100 µM | [10] 68.1 µM | [18] 40.6 µM | [11] > 100 µM | [12] > 100 µM | [14] > 100 µM | [19] 44.3 µM | [15] > 100 µM | [20] 49.9 µM

CN(C)CCNC(=O)c1cccc2nc3c4ccccc4c4ccccc4c3nc12
inactive: [1] 2.74 µM | [2] 2.65 µM | [3] 2.28 µM | [17] 17.6 µM | [4] 9.44 µM | [5] 1.79 µM | [6] 1.81 µM | [7] 5.27 µM | [8] 8.13 µM | [9] 1.56 µM | [10] 1.31 µM | [18] 3.38 µM | [11] 16.2 µM | [12] 2 µM | [13] 7 µM | [19] 2.06 µM | [15] 7.67 µM | [20] 2.35 µM | [16] 1.72 µM
